This note sets out measurements from patent US10544130B2, “Metallo-beta-lactamase inhibitors” (priority 2015, dated 2020).

In this data set the test system is Pseudomonas aeruginosa PAO1 MB9798 (efflux+, IMP-1). The following applies: ratio MITC95 PA 9798/MITC95 PA 9799; imipenem at 2 μg/mL. The method in brief: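 Isogenic PAO1 pair (efflux+ MB9798, efflux− MB9799, both IMP-1) tested by microbroth MIC with fixed imipenem and/or ceftazidime, usually at CLSI breakpoint, plus fixed class A/C inhibitor against AmpC. MBL inhibitor titrated; concentration restoring susceptibility recorded and fold difference between strains taken as efflux extent.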
As to `Nc1nc2c(-c3ccc(S(=O)(=O)NCCC(N)CF)c(S(N)(=O)=O)c3-c3nnn[nH]3)cccc2s1.O=CO` (stereo not drawn) [Example 123, 4-(4-(2-aminobenzo[d]thiazol-4-yl)-2-sulfamoyl-3-(1H-tetrazol-5-yl)phenylsulfonamido)-l-fluorobutan-2-aminium formate], the Efflux ratio was 1.00. Take `Nc1nc2c(-c3ccc(S(=O)(=O)NCCC(N)C(F)F)c(S(N)(=O)=O)c3-c3nnn[nH]3)cccc2s1.O=CO` (stereo not shown) [Example 124, 4-(4-(2-aminobenzo[d]thiazol-4-yl)-2-sulfamoyl-3-(1H-tetrazol-5-yl)phenylsulfonamido)-1,1-difluorobutan-2-aminium formate]: the Efflux ratio is recorded as 4.00. As for `C[C@H](N)CNS(=O)(=O)c1ccc(-c2cccc3sc(N)nc23)c(-c2nnn[nH]2)c1S(N)(=O)=O.O=CO` [Example 127, (S)-4-(2-aminobenzo[d]thiazol-4-yl)-N1-(2-aminopropyl)-3-(1H-tetrazol-5-yl)benzene-1,2-disulfonamide, formate salt], the figure is 1.00; as for `COC(=O)[C@H]1C[C@@H](NS(=O)(=O)c2ccc(-c3cccc4sc(N)nc34)c(-c3nnn[nH]3)c2S(N)(=O)=O)CN1` [Example 128, Methyl(2R,4R)-4-((4-(2-aminobenzo[d]thiazol-4-yl)-2-sulfamoyl-3-(1H-tetrazol-5-yl)phenyl)sulfonamido)pyrrolidine-2-carboxylate], 1.00. As for `NS(=O)(=O)c1c(S(=O)(=O)N[C@@H]2CCNC2)ccc(-c2cccc3nc(O)[nH]c23)c1-c1nnn[nH]1` [Example 130, (R)-4-(2-hydroxy-1H-benzo[d]imidazol-7-yl)-N1-(pyrrolidin-3-yl)-3-(1H-tetrazol-5-yl)benzene-1,2-disulfonamide], the Efflux ratio stood at 0.50. For the compound `NS(=O)(=O)c1c(S(=O)(=O)N[C@@H]2CCNC2)ccc(-c2cccc3c2OC(F)(F)O3)c1-c1nnn[nH]1` [Example 131, (R)-4-(2,2-difluorobenzo[d][1,3]dioxol-4-yl)-N1-(pyrrolidin-3-yl)-3-(1H-tetrazol-5-yl)benzene-1,2-disulfonamide], the Efflux ratio is 16.00. With `N#Cc1cccc(-c2ccc(S(=O)(=O)N[C@@H]3CCNC3)c(S(N)(=O)=O)c2-c2nnn[nH]2)c1N` [Example 132, (R)-2′-amino-3′-cyano-N4-(pyrrolidin-3-yl)-2-(1H-tetrazol-5-yl)-[1,1′-biphenyl]-3,4-disulfonamide], the Efflux ratio was 4.00. The value for `NS(=O)(=O)c1c(S(=O)(=O)N[C@@H]2CCNC2)ccc(-c2ccc3nonc3c2)c1-c1nnn[nH]1` [Example 133, (R)-4-(benzo[c][1,2,5]oxadiazol-5-yl)-N1-(pyrrolidin-3-yl)-3-(1H-tetrazol-5-yl)benzene-1,2-disulfonamide] was 8.00. On to `NS(=O)(=O)c1ccc(-c2ccc(S(=O)(=O)N[C@@H]3CCNC3)c(S(N)(=O)=O)c2-c2nnn[nH]2)cc1` [Example 135, (R)-N4-(pyrrolidin-3-yl)-2-(1H-tetrazol-5-yl)-[1,1′-biphenyl]-3,4,4′-trisulfonamide], for which the Efflux ratio turned out to be 1.00. As for `CS(=O)(=O)Nc1ccc(-c2ccc(S(=O)(=O)N[C@@H]3CCNC3)c(S(N)(=O)=O)c2-c2nnn[nH]2)cc1` [Example 136, (R)-4′-(methylsulfonamido)-N4-(pyrrolidin-3-yl)-2-(1H-tetrazol-5-yl)-[1,1′-biphenyl]-3,4-disulfonamide], the figure is 2.00; as for `NC(=O)c1ccc(-c2ccc(S(=O)(=O)N[C@@H]3CCNC3)c(S(N)(=O)=O)c2-c2nnn[nH]2)cc1` [Example 137, (R)-4′-(N-(pyrrolidin-3-yl)sulfamoyl)-3′-sulfamoyl-2′-(1H-tetrazol-5-yl)-[1,1′-biphenyl]-4-carboxamide], 1.00. Regarding `NS(=O)(=O)c1c(S(=O)(=O)N[C@@H]2CCNC2)ccc(-c2ccc3c(c2)C(=O)NC3)c1-c1nnn[nH]1` [Example 138, (R)-4-(3-oxoisoindolin-5-yl)-N1-(pyrrolidin-3-yl)-3-(1H-tetrazol-5-yl)benzene-1,2-disulfonamide], the Efflux ratio is listed as 1.00. In the case of `NS(=O)(=O)c1c(S(=O)(=O)N[C@@H]2CCNC2)ccc(-c2cccc3cn[nH]c23)c1-c1nnn[nH]1` [Example 139, (R)-4-(1H-indazol-7-yl)-N1-(pyrrolidin-3-yl)-3-(1H-tetrazol-5-yl)benzene-1,2-disulfonamide], the Efflux ratio is reported as 1.00. With `NS(=O)(=O)c1c(S(=O)(=O)N[C@@H]2CCNC2)ccc(-c2cnc3ccccn23)c1-c1nnn[nH]1` [Example 140, (R)-4-(imidazo[1,2-a]pyridin-3-yl)-N1-(pyrrolidin-3-yl)-3-(1H-tetrazol-5-yl)benzene-1,2-disulfonamide], the Efflux ratio worked out at 2.00. Turning to `C[C@H]1NC(=O)O[C@H]1c1ccc(-c2ccc(S(=O)(=O)N[C@@H]3CCNC3)c(S(N)(=O)=O)c2-c2nnn[nH]2)cc1` [Example 141, 4'-((4R,5S)-4-methyl-2-oxooxazolidin-5-yl)-N4-((R)-pyrrolidin-3-yl)-2-(1H-tetrazol-5-yl)-[1,1'-biphenyl]-3,4-disulfonamide], the Efflux ratio is 1.00. With `Nc1nc2c(-c3ccc(S(N)(=O)=O)c(S(N)(=O)=O)c3-c3nn[nH]n3)cccc2s1` [Example 143, 4-(2-aminobenzo[d]thiazol-4-yl)-3-(2H-tetrazol-5-yl)benzene-1,2-disulfonamide], the Efflux ratio is reported as 0.50. The value for `Nc1nc2c(-c3ccc(S(=O)(=O)NCCO)c(S(N)(=O)=O)c3-c3nn[nH]n3)cccc2s1` [Example 144, 4-(2-aminobenzo[d]thiazol-4-yl)-N1-(2-hydroxyethyl)-3-(2H-tetrazol-5-yl)benzene-1,2-disulfonamide] was 1.00; that for `NCCNS(=O)(=O)c1ccc(-c2cccc3sc(N)nc23)c(-c2nn[nH]n2)c1S(N)(=O)=O` [Example 145, 4-(2-aminobenzo[d]thiazol-4-yl)-N1-(2-aminoethyl)-3-(2H-tetrazol-5-yl)benzene-1,2-disulfonamide] was 0.50. As for `Nc1nc2c(-c3ccc(S(=O)(=O)NC4CNC4)c(S(N)(=O)=O)c3-c3nn[nH]n3)cccc2s1` [Example 146, 4-(2-aminobenzo[d]thiazol-4-yl)-N1-(azetidin-3-yl)-3-(2H-tetrazol-5-yl)benzene-1,2-disulfonamide], the Efflux ratio was 0.50. As for `Nc1nc2c(-c3ccc(S(=O)(=O)N4CC(N)C4)c(S(N)(=O)=O)c3-c3nn[nH]n3)cccc2s1` [Example 147, 6-((3-aminoazetidin-1-yl)sulfonyl)-3-(2-aminobenzo[d]thiazol-4-yl)-2-(2H-tetrazol-5-yl)benzenesulfonamide], the figure is 1.00. For the compound `Nc1nc2c(-c3ccc(S(=O)(=O)N4CCC(N)CC4)c(S(N)(=O)=O)c3-c3nn[nH]n3)cccc2s1` [Example 148, 3-(2-aminobenzo[d]thiazol-4-yl)-6-((4-aminopiperidin-1-yl)sulfonyl)-2-(2H-tetrazol-5-yl)benzenesulfonamide], the Efflux ratio is listed as 2.00. As for `Nc1nc2c(-c3ccc(S(=O)(=O)NCC4(N)CC4)c(S(N)(=O)=O)c3-c3nn[nH]n3)cccc2s1` [Example 149, 4-(2-aminobenzo[d]thiazol-4-yl)-N1-((1-aminocyclopropyl)methyl)-3-(2H-tetrazol-5-yl)benzene-1,2-disulfonamide], the figure is 1.00.
